Structures are written as SMILES.

Usually IC50 stands for the point on the concentration scale where inhibition reaches its midpoint.

Assay [1] has as its system M21. Kind of assay: Cell cycle arrest in human M21 cells assessed as accumulation at subG1 phase at 40 uM after 24 hrs by DAPI staining-based flow cytometry (reference value: 1.5%). In kind it is functional. On the technique in general: Flow cytometry measures light scatter and fluorescence of single cells or particles in a stream.
In assay [2] the test system is HT-29. Kind of assay: Antiproliferative activity against human HT-29 cells assessed as growth inhibition incubated for 48 hrs by sulforhodamine B assay. It counts as functional, cell-based. The settings on record: HT-29, 48 h. (Sulforhodamine B stains cellular protein and so reports cell mass.)
The test system of assay [3] is M21. Kind of assay: Cell cycle arrest in human M21 cells assessed as accumulation at G0/G1 phase at 40 uM after 24 hrs by DAPI staining-based flow cytometry (reference value: 65.1%). It counts as functional.
For assay [4], the system named is M21. Kind of assay: Antiproliferative activity against human M21 cells assessed as growth inhibition incubated for 48 hrs by sulforhodamine B assay. It counts as functional, cell-based. As to conditions: M21, 48 h.
Assay [5] concerns MCF7. Kind of assay: Antiproliferative activity against human MCF7 cells assessed as growth inhibition incubated for 48 hrs by sulforhodamine B assay. In kind it is functional, cell-based. The settings on record: MCF7, 48 h.
The subject of assay [6] is M21. Kind of assay: Cell cycle arrest in human M21 cells assessed as accumulation at G2/M phase at 40 uM after 24 hrs by DAPI staining-based flow cytometry (reference value: 16%). It counts as functional.
The nature of assay [7]: Antiproliferative activity against human HT1080 cells assessed as growth inhibition incubated for 48 hrs by sulforhodamine B assay. As to conditions: Homo sapiens, HT-1080, 48 h; read-out: IC50. It counts as functional, cell-based, HT-1080.
Assay [8] deals with M21. Kind of assay: Cell cycle arrest in human M21 cells assessed as accumulation at S phase at 40 uM after 24 hrs by DAPI staining-based flow cytometry (reference value: 17.4%). In kind it is functional.
Assay [9] relates to M21. Kind of assay: Cell cycle arrest in human M21 cells assessed as accumulation at S phase at 3.8 uM after 24 hrs by DAPI staining-based flow cytometry (reference value: 17.4%). In kind it is functional.
In assay [10] the test system is M21. Kind of assay: Cell cycle arrest in human M21 cells assessed as accumulation at G2/M phase at 3.8 uM after 24 hrs by DAPI staining-based flow cytometry (reference value: 16%). In kind it is functional.
Assay [11] relates to M21. Kind of assay: Cell cycle arrest in human M21 cells assessed as accumulation at G0/G1 phase at 3.8 uM after 24 hrs by DAPI staining-based flow cytometry (reference value: 65.1%). In kind it is functional.
In assay [12] the test system is M21. Kind of assay: Cell cycle arrest in human M21 cells assessed as accumulation at subG1 phase at 3.8 uM after 24 hrs by DAPI staining-based flow cytometry (reference value: 1.5%). It counts as functional.
The subject of assay [13] is M21. Kind of assay: Cell cycle arrest in human M21 cells assessed as accumulation at G0/G1 phase at 1.2 uM after 24 hrs by DAPI staining-based flow cytometry (reference value: 65.1%). In kind it is functional.
In assay [14] the test system is M21. Kind of assay: Cell cycle arrest in human M21 cells assessed as accumulation at S phase at 1.2 uM after 24 hrs by DAPI staining-based flow cytometry (reference value: 17.4%). In kind it is functional.
In assay [15] the test system is M21. Kind of assay: Cell cycle arrest in human M21 cells assessed as accumulation at subG1 phase at 1.2 uM after 24 hrs by DAPI staining-based flow cytometry (reference value: 1.5%). It counts as functional.
Assay [16] concerns M21. Kind of assay: Cell cycle arrest in human M21 cells assessed as accumulation at G2/M phase at 1.2 uM after 24 hrs by DAPI staining-based flow cytometry (reference value: 16%). In kind it is functional.
For assay [17], the system named is M21. Kind of assay: Cell cycle arrest in human M21 cells assessed as accumulation at G2/M phase at 1.7 uM after 24 hrs by DAPI staining-based flow cytometry (reference value: 16%). It counts as functional.
Assay [18] deals with M21. Kind of assay: Cell cycle arrest in human M21 cells assessed as accumulation at S phase at 1.7 uM after 24 hrs by DAPI staining-based flow cytometry (reference value: 17.4%). It counts as functional.
In assay [19] the test system is M21. Kind of assay: Cell cycle arrest in human M21 cells assessed as accumulation at G0/G1 phase at 1.7 uM after 24 hrs by DAPI staining-based flow cytometry (reference value: 65.1%). In kind it is functional.
The test system of assay [20] is M21. Kind of assay: Cell cycle arrest in human M21 cells assessed as accumulation at subG1 phase at 1.7 uM after 24 hrs by DAPI staining-based flow cytometry (reference value: 1.5%). It counts as functional.
For assay [21], the system named is M21. Kind of assay: Cell cycle arrest in human M21 cells assessed as accumulation at subG1 phase at 43 uM after 24 hrs by DAPI staining-based flow cytometry (reference value: 1.5%). It counts as functional.
Assay [22] concerns M21. Kind of assay: Cell cycle arrest in human M21 cells assessed as accumulation at G2/M phase at 43 uM after 24 hrs by DAPI staining-based flow cytometry (reference value: 16%). It counts as functional.
In assay [23] the test system is M21. Kind of assay: Cell cycle arrest in human M21 cells assessed as accumulation at G0/G1 phase at 43 uM after 24 hrs by DAPI staining-based flow cytometry (reference value: 65.1%). It counts as functional.
Assay [24] has as its system M21. Kind of assay: Cell cycle arrest in human M21 cells assessed as accumulation at S phase at 43 uM after 24 hrs by DAPI staining-based flow cytometry (reference value: 17.4%). It counts as functional.
For assay [25], the system named is M21. Kind of assay: Cell cycle arrest in human M21 cells assessed as accumulation at subG1 phase at 49 uM after 24 hrs by DAPI staining-based flow cytometry (reference value: 1.5%). In kind it is functional.
In assay [26] the test system is M21. Kind of assay: Cell cycle arrest in human M21 cells assessed as accumulation at G0/G1 phase at 49 uM after 24 hrs by DAPI staining-based flow cytometry (reference value: 65.1%). In kind it is functional.
Assay [27] concerns M21. Kind of assay: Cell cycle arrest in human M21 cells assessed as accumulation at S phase at 49 uM after 24 hrs by DAPI staining-based flow cytometry (reference value: 17.4%). In kind it is functional.
The subject of assay [28] is M21. Kind of assay: Cell cycle arrest in human M21 cells assessed as accumulation at G2/M phase at 49 uM after 24 hrs by DAPI staining-based flow cytometry (reference value: 16%). It counts as functional.
Assay [29] deals with M21. Kind of assay: Cell cycle arrest in human M21 cells assessed as accumulation at G2/M phase at 32 uM after 24 hrs by DAPI staining-based flow cytometry (reference value: 16%). It counts as functional.
Assay [30] deals with M21. Kind of assay: Cell cycle arrest in human M21 cells assessed as accumulation at G0/G1 phase at 32 uM after 24 hrs by DAPI staining-based flow cytometry (reference value: 65.1%). In kind it is functional.
The test system of assay [31] is M21. Kind of assay: Cell cycle arrest in human M21 cells assessed as accumulation at S phase at 32 uM after 24 hrs by DAPI staining-based flow cytometry (reference value: 17.4%). It counts as functional.
In assay [32] the test system is M21. Kind of assay: Cell cycle arrest in human M21 cells assessed as accumulation at subG1 phase at 32 uM after 24 hrs by DAPI staining-based flow cytometry (reference value: 1.5%). In kind it is functional.

Turning to `O=C(NCCCl)Nc1ccc(S(=O)(=O)Oc2ccc(Br)cc2)cc1`, the Activity in assay [1] is listed as 7.5%; in assay [3], 12%; in [6] it was 76.1%; in assay [8], 4.4%. Also, the IC50 in assay [2] was 8.3 µM; in [4], 8.1 µM; in assay [5] it was 9.4 µM; in assay [7] it was 9.6 µM.

In the case of `O=C(NCCCl)Nc1ccc(S(=O)(=O)Oc2cc(Cl)cc(Cl)c2)cc1`, the Activity in [9] was 6%; in assay [10] it was 84.3%; in assay [11] it was 2.5%; in assay [12], 7.2%. The IC50 in assay [2] came to 0.55 µM; in assay [4], 0.51 µM; in [5], 1 µM; in [7] it was 1.1 µM.

Regarding `O=C(NCCCl)Nc1ccc(S(=O)(=O)Oc2cc(Br)cc(Br)c2)cc1`, the Activity came out at 2.6% in assay [13], 6.9% in [14], 7.1% in [15] and 83.4% in assay [16]. In addition, the IC50 in assay [2] was 0.3 µM; in [4], 0.24 µM; in [5] it was 0.4 µM; in assay [7], 0.4 µM.

Consider `COc1cc(OS(=O)(=O)c2ccc(NC(=O)NCCCl)cc2)cc(OC)c1OC`, for which the Activity in assay [17] was 66.1%; in assay [18] it was 9%; in [19], 15.6%; in assay [20], 9.3%. For the same compound, the IC50 in assay [2] is 0.5 µM; in [4], 0.47 µM; in assay [5] it was 0.66 µM; in assay [7], 0.64 µM.

Consider `CCCCOc1ccc(OS(=O)(=O)c2ccc(NC(=O)NCCCl)cc2)cc1`, for which the Activity was determined as 8.3% in assay [21], 42.9% in [22], 39.7% in assay [23] and 9.1% in [24]. The IC50 in assay [2] is 6.5 µM; in [4], 7.7 µM; in [5], 7.1 µM; in assay [7], 3.4 µM.

Turning to `CCOc1ccc(OS(=O)(=O)c2ccc(NC(=O)NCCCl)cc2)cc1`, the IC50 was determined as 7.8 µM in assay [2], 8.3 µM in assay [4], 9.5 µM in assay [5] and 8.3 µM in assay [7]. Besides, the Activity was determined as 3.5% in [25], 13.4% in assay [26], 8.2% in assay [27] and 74.9% in [28].

Turning to `O=C(NCCCl)Nc1ccc(S(=O)(=O)Oc2cc(F)cc(F)c2)cc1`, the Activity in assay [29] was found to be 75.7%; in assay [30], 7.4%; in assay [31], 10.2%; in [32], 6.7%. The IC50 in assay [2] stood at 4.8 µM; in [4], 5 µM; in [5] it was 5.7 µM; in assay [7], 5.7 µM.

Source of the values: ChEMBL document CHEMBL3632622, “Synthesis and biological evaluation of novel N-phenyl ureidobenzenesulfonate derivatives as potential anticancer agents. Part 2. Modulation of the ring B” (Eur J Med Chem, 2015).
